Laboratory results from PubChem BioAssay AID260 (DTP/NCI, 2004).
“And” between values parts separate entries of the source, which are not always exact repeats. Equal values may be shown once. Inconclusive results and toxic doses are left out.

Test system: CD2F1 mice, intracerebral L1210 leukemia, survival T/C
Assay: NCI In Vivo Anticancer Drug Screen. Data for tumor model L1210 Leukemia (intracerebral) in CD2F1 (CDF1) mice
Conditions: higher = longer survival
Procedure: The antitumor activity of compounds was measured in mice bearing transplantable tumors. Survival or tumor size were measured and the results are expressed as the measurement made in the treated group (T) divided by the measurement made in the vehicle treated control group (C). The tumor model used in this assay is L1210 Leukemia (intracerebral) in CD2F1 (CDF1) mice

[1] = endpoint: median survival time, dose: 16.0 mg/kg/injection, schedule: Q01DX005 (ip), vehicle: saline with Tween-80
[2] = endpoint: median survival time, dose: 32.0 mg/kg/injection, schedule: Q01DX005 (ip), vehicle: saline with Tween-80
[3] = endpoint: median survival time, dose: 128.0 mg/kg/injection, schedule: Q01DX005 (ip), vehicle: saline with Tween-80
[4] = endpoint: median survival time, dose: 64.0 mg/kg/injection, schedule: Q01DX005 (ip), vehicle: saline with Tween-80

For `O=S1(=O)CS(=O)(=O)OCCO1`, the T/C (endpoint: median survival time, dose: 3.13 mg/kg/injection, schedule: Q01DX009 (ip), vehicle: Klucel (hydroxypropylcellulose) (HPC)) was 122 % of control, the T/C (endpoint: median survival time, dose: 12.5 mg/kg/injection, schedule: Q01DX009 (ip), vehicle: Klucel (hydroxypropylcellulose) (HPC)) was 170 % of control and the T/C (endpoint: median survival time, dose: 25.0 mg/kg/injection, schedule: Q01DX009 (ip), vehicle: Klucel (hydroxypropylcellulose) (HPC)) was 182 % of control. The T/C (endpoint: median survival time, dose: 50.0 mg/kg/injection, schedule: Q01DX009 (ip), vehicle: Klucel (hydroxypropylcellulose) (HPC)) was 200 % of control.

With `Nc1ccn([C@@H]2C=C(CO)[C@@H](O)[C@H]2O)c(=O)n1` the T/C (endpoint: median survival time, dose: 0.44 mg/kg/injection, schedule: Q01DX009 (ip), vehicle: saline) was 103 % of control, the T/C (endpoint: median survival time, dose: 0.67 mg/kg/injection, schedule: Q01DX009 (ip), vehicle: saline) was 114 % of control and the T/C (endpoint: median survival time, dose: 2.25 mg/kg/injection, schedule: Q01DX009 (ip), vehicle: saline) was 120 % of control. The T/C (endpoint: median survival time, dose: 3.76 mg/kg/injection, schedule: Q01DX009 (ip), vehicle: saline) was 92 % of control.

In the case of `COC(=O)NC1=C(N2CC2)C(=O)C(NC(=O)OC)=C(N2CC2)C1=O`, the T/C (endpoint: median survival time, dose: 0.37 mg/kg/injection, schedule: Q01DX009 (ip), vehicle: saline) is reported as 112 % of control and 117 % of control and the T/C (endpoint: median survival time, dose: 0.75 mg/kg/injection, schedule: Q01DX009 (ip), vehicle: saline) is reported as 120 % of control and 122 % of control.

With `F` the T/C (endpoint: median survival time, dose: 16.0 mg/kg/injection, schedule: Q01DX005 (ip), vehicle: saline) was 100 % of control and 104 % of control and the T/C (endpoint: median survival time, dose: 32.0 mg/kg/injection, schedule: Q01DX005 (ip), vehicle: saline) was 88 % of control and 105 % of control.

In the case of `CN(C)N=Nc1ccc(C(N)=O)cc1`, the T/C (endpoint: median survival time, dose: 8.0 mg/kg/injection, schedule: Q01DX005 (ip), vehicle: saline with Tween-80) is reported as 104 % of control, the T/C [1] is reported as 113 % of control and the T/C [2] is reported as 121 % of control. The T/C [3] was 106 % of control.

For `O=C(O)CC(NC(=O)CP(=O)(O)O)C(=O)O` (configuration not stated), the T/C (endpoint: mean survival time, dose: 200.0 mg/kg/injection, schedule: Q01DX009 (ip), vehicle: saline) was 100 % of control, the T/C (endpoint: mean survival time, dose: 225.0 mg/kg/injection, schedule: Q01DX009 (ip), vehicle: saline) was 108 % of control and the T/C (endpoint: mean survival time, dose: 250.0 mg/kg/injection, schedule: Q01DX009 (ip), vehicle: saline) was 101 % of control.

With `CN(C)N=Nc1ccc(Cl)cc1` the T/C (endpoint: mean survival time, dose: 10.0 mg/kg/injection, schedule: Q01DX007 (ip), vehicle: DMSO) was 90 % of control, the T/C (endpoint: mean survival time, dose: 20.0 mg/kg/injection, schedule: Q01DX007 (ip), vehicle: DMSO) was 91 % of control and the T/C (endpoint: mean survival time, dose: 40.0 mg/kg/injection, schedule: Q01DX007 (ip), vehicle: DMSO) was 108 % of control. The T/C (endpoint: mean survival time, dose: 80.0 mg/kg/injection, schedule: Q01DX007 (ip), vehicle: DMSO) was 87 % of control and the T/C (endpoint: mean survival time, dose: 120.0 mg/kg/injection, schedule: Q01DX007 (ip), vehicle: DMSO) was 91 % of control.

`COc1ccc2c(c1)CCC(c1ccccc1)=C2c1ccc(OCCN2CCCC2)cc1` was tested, and the T/C (endpoint: median survival time, dose: 12.0 mg/kg/injection, schedule: Q01DX005 (ip), vehicle: Klucel (hydroxypropylcellulose) (HPC)) was 98 % of control and 101 % of control, the T/C (endpoint: median survival time, dose: 24.0 mg/kg/injection, schedule: Q01DX005 (ip), vehicle: Klucel (hydroxypropylcellulose) (HPC)) was 106 % of control and the T/C (endpoint: median survival time, dose: 48.0 mg/kg/injection, schedule: Q01DX005 (ip), vehicle: Klucel (hydroxypropylcellulose) (HPC)) was 108 % of control. For the same molecule, the T/C (endpoint: median survival time, dose: 96.0 mg/kg/injection, schedule: Q01DX005 (ip), vehicle: Klucel (hydroxypropylcellulose) (HPC)) was 106 % of control.

In the case of `CC/C(=C(/CC)c1ccc(O)cc1)c1ccc(O)cc1`, the T/C (endpoint: median survival time, dose: 8.0 mg/kg/injection, schedule: Q01DX009 (ip), vehicle: saline) is reported as 104 % of control and 113 % of control, the T/C [1] is reported as 93 % of control and 106 % of control and the T/C (endpoint: median survival time, dose: 16.0 mg/kg/injection, schedule: Q01DX009 (ip), vehicle: saline) is reported as 104 % of control and 113 % of control. The T/C [2] was 93 % of control and 103 % of control, the T/C (endpoint: median survival time, dose: 32.0 mg/kg/injection, schedule: Q01DX009 (ip), vehicle: saline) was 98 % of control and 112 % of control and the T/C [4] was 103 % of control and 116 % of control. For the same molecule, the T/C (endpoint: median survival time, dose: 64.0 mg/kg/injection, schedule: Q01DX009 (ip), vehicle: saline) was 105 % of control and 112 % of control, the T/C [3] was 103 % of control and 105 % of control and the T/C (endpoint: median survival time, dose: 256.0 mg/kg/injection, schedule: Q01DX009 (ip), vehicle: saline) was 112 % of control. The T/C (endpoint: median survival time, dose: 512.0 mg/kg/injection, schedule: Q01DX009 (ip), vehicle: saline) was 86 % of control.

`NC(C/[N+]([O-])=N/O)C(=O)O` (configuration not stated) was tested, and the T/C (endpoint: median survival time, dose: 1.0 mg/kg/injection, schedule: Q01DX009 (ip), vehicle: saline with Tween-80) was 98 % of control, the T/C (endpoint: median survival time, dose: 2.0 mg/kg/injection, schedule: Q01DX009 (ip), vehicle: saline with Tween-80) was 105 % of control and the T/C (endpoint: median survival time, dose: 4.0 mg/kg/injection, schedule: Q01DX009 (ip), vehicle: saline with Tween-80) was 101 % of control. The T/C (endpoint: median survival time, dose: 8.0 mg/kg/injection, schedule: Q01DX009 (ip), vehicle: saline with Tween-80) was 101 % of control, the T/C (endpoint: median survival time, dose: 16.0 mg/kg/injection, schedule: Q01DX009 (ip), vehicle: saline with Tween-80) was 102 % of control and the T/C (endpoint: median survival time, dose: 32.0 mg/kg/injection, schedule: Q01DX009 (ip), vehicle: saline with Tween-80) was 104 % of control. For the same molecule, the T/C (endpoint: median survival time, dose: 56.25 mg/kg/injection, schedule: Q01DX009 (ip), vehicle: saline) was 115 % of control, the T/C (endpoint: median survival time, dose: 100.0 mg/kg/injection, schedule: Q01DX009 (ip), vehicle: Klucel (hydroxypropylcellulose) (HPC)) was 110 % of control and 112 % of control and the T/C (endpoint: median survival time, dose: 112.5 mg/kg/injection, schedule: Q01DX009 (ip), vehicle: saline) was 89 % of control. For the same molecule, the T/C (endpoint: median survival time, dose: 200.0 mg/kg/injection, schedule: Q01DX009 (ip), vehicle: Klucel (hydroxypropylcellulose) (HPC)) was 86 % of control and 87 % of control and the T/C (endpoint: median survival time, dose: 225.0 mg/kg/injection, schedule: Q01DX009 (ip), vehicle: saline) was 89 % of control.

With `CC1(C)N=C(N)N=C(N)N1c1ccc(CCC(=O)Nc2ccc(S(=O)(=O)F)cc2)c(Cl)c1` the T/C (endpoint: mean survival time, dose: 6.25 mg/kg/injection, schedule: Q01DX009 (ip), vehicle: saline) was 94 % of control, the T/C (endpoint: mean survival time, dose: 12.5 mg/kg/injection, schedule: Q01DX009 (ip), vehicle: saline) was 94 % of control and the T/C (endpoint: mean survival time, dose: 25.0 mg/kg/injection, schedule: Q01DX009 (ip), vehicle: saline) was 94 % of control. The T/C (endpoint: mean survival time, dose: 50.0 mg/kg/injection, schedule: Q01DX009 (ip), vehicle: saline) was 98 % of control.

`CN(Cc1cnc2nc(N[Si](C)(C)C)nc(N[Si](C)(C)C)c2n1)c1ccc(C(=O)NC(CCC(=O)O[Si](C)(C)C)C(=O)O[Si](C)(C)C)cc1` (configuration not stated) was tested, and the T/C (endpoint: median survival time, dose: 1.9 mg/kg/injection, schedule: Q04DX003 (ip), vehicle: saline) was 107 % of control, the T/C (endpoint: median survival time, dose: 3.8 mg/kg/injection, schedule: Q04DX003 (ip), vehicle: saline) was 121 % of control and the T/C (endpoint: median survival time, dose: 30.0 mg/kg/injection, schedule: Q04DX003 (ip), vehicle: saline) was 150 % of control. The T/C (endpoint: median survival time, dose: 60.0 mg/kg/injection, schedule: Q04DX003 (ip), vehicle: saline) was 157 % of control.

With `CCCCCCCCCCCCCCCCCC(=O)Nc1ccn(C2OC(CO)C(O)C2O)c(=O)n1` (configuration not stated) the T/C (endpoint: median survival time, dose: 25.0 mg/kg/injection, schedule: Q01DX009 (ip), vehicle: saline with Tween-80) was 188 % of control and the T/C (endpoint: median survival time, dose: 100.0 mg/kg/injection, schedule: Q01DX009 (ip), vehicle: saline with Tween-80) was 121 % of control.

In the case of `CNc1nc(N(C)C)nc(N(C)C)n1`, the T/C (endpoint: median survival time, dose: 12.5 mg/kg/injection, schedule: Q01DX009 (ip), vehicle: saline) is reported as 98 % of control and 114 % of control.

In the case of `CC1CN1C(=O)NCCCCCCNC(=O)N1CC1C` (configuration not stated), the T/C (endpoint: median survival time, dose: 1.25 mg/kg/injection, schedule: Q01DX009 (ip), vehicle: Klucel (hydroxypropylcellulose) (HPC)) is reported as 103 % of control, the T/C (endpoint: median survival time, dose: 2.5 mg/kg/injection, schedule: Q01DX009 (ip), vehicle: Klucel (hydroxypropylcellulose) (HPC)) is reported as 102 % of control and the T/C (endpoint: median survival time, dose: 5.0 mg/kg/injection, schedule: Q01DX009 (ip), vehicle: Klucel (hydroxypropylcellulose) (HPC)) is reported as 112 % of control. The T/C (endpoint: median survival time, dose: 10.0 mg/kg/injection, schedule: Q01DX009 (ip), vehicle: Klucel (hydroxypropylcellulose) (HPC)) was 120 % of control and the T/C (endpoint: median survival time, dose: 20.0 mg/kg/injection, schedule: Q01DX009 (ip), vehicle: Klucel (hydroxypropylcellulose) (HPC)) was 120 % of control.

`CCCN(C)/N=N/c1nc[nH]c1C(N)=O` was tested, and the T/C (endpoint: median survival time, dose: 4.0 mg/kg/injection, schedule: Q01DX005 (ip), vehicle: suspension in saline) was 105 % of control, the T/C (endpoint: median survival time, dose: 8.0 mg/kg/injection, schedule: Q01DX005 (ip), vehicle: suspension in saline) was 109 % of control and the T/C (endpoint: median survival time, dose: 16.0 mg/kg/injection, schedule: Q01DX005 (ip), vehicle: suspension in saline) was 112 % of control. The T/C (endpoint: median survival time, dose: 32.0 mg/kg/injection, schedule: Q01DX005 (ip), vehicle: suspension in saline) was 118 % of control and the T/C (endpoint: median survival time, dose: 64.0 mg/kg/injection, schedule: Q01DX005 (ip), vehicle: suspension in saline) was 124 % of control.

For `CCCCCCCCN(C)/N=N/c1nc[nH]c1C(N)=O`, the T/C [1] was 119 % of control, the T/C [2] was 121 % of control and the T/C [4] was 124 % of control. The T/C [3] was 118 % of control and the T/C (endpoint: median survival time, dose: 256.0 mg/kg/injection, schedule: Q01DX005 (ip), vehicle: saline with Tween-80) was 89 % of control.

With `Cc1c2ccncc2c(C)c2c1[nH]c1ccccc12` the T/C (endpoint: mean survival time, dose: 10.0 mg/kg/injection, schedule: Q01DX009 (ip), vehicle: saline) was 157 % of control and the T/C (endpoint: mean survival time, dose: 20.0 mg/kg/injection, schedule: Q01DX009 (ip), vehicle: saline) was 157 % of control.
